Test results reported in patent US5728686A, “Alkylxanthine phosphonates and alkylxanthine phosphine oxides and their use as pharmaceuticals” (Hoechst Aktiengesellschaft, priority 1996, dated 1998).
≈ marks a conversion by molar mass, not a printed value.

Columns and labels:
[1] = tested on: muscle group (gastrocnemius, plantaris and soleus) of the immobilized right rear extremity; test: rat muscle function test: direct electrical stimulation of muscle group after 3 weeks' immobilization; assay type: in vivo, male Wistar rats; settings: isotonic stimulation; oral, 1x per day for 3 weeks, as a rule 25 mg/kg; control approx. -25%; ≤-12% classified as active
How it was run: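 Male Wistar rats (about 300 g) had the right hindlimb immobilized in a plastic cast for 3 weeks while dosed orally once daily, usually 25 mg/kg in carboxymethylcellulose. Under pentobarbital, the gastrocnemius/plantaris/soleus group was stimulated directly: isometric force (0.5N preload, 15 min) as area-under-curve, and isotonic work (body-weight preload, 15 min) in J; results as Δ% immobilized vs contralateral muscle.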

soleus muscle = test: rat muscle function test: muscle weight (atrophy of immobilized extremity); assay type: in vivo, male Wistar rats; settings: oral, 1x per day for 3 weeks, as a rule 25 mg/kg, difference ≤25% classified as an effect
How it was run: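 Male Wistar rats (~300 g) had the right hind limb immobilized in a padded plastic cast for 3 weeks with daily oral dosing by stomach tube, as a rule 25 mg/kg in carboxymethylcellulose. Soleus weight of the immobilized limb was compared with the contralateral limb; a difference of ≤25% was classed as an effect.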

[2] = tested on: isolated guinea pig trachea, agonist PGF2α; test: antagonist of PGF2α-induced contraction of isolated guinea pig trachea; assay type: cell-based; settings: Cavia porcellus, 37° C., read-out: Anticontractile action (trachea), PGF2α: concentration range for dilatation corresponding to ED50 range
From the text: (§1) 3. Activity as antagonist of the contraction of isolated guinea pig trachea
(§2) The compounds of the formula I are used as antagonists of the contraction of isolated guinea pig trachea. The agonists employed were PGF2α (Upjohn, Germany), calcium ionophore A23187 (Calbiochem, Bad Soden, Germany), and substance P (American Peptide Comp., USA):
Inhibition of contractions which are induced by this cyclooxygenase product is only possible by competitive antagonism at the receptor or of the subsequent signal pathway.
(§3) Preparation of the organ sections and experimental procedure:
(§4) The guinea pig is sacrificed by means of terminal laughing gas anaesthesia. The trachea is exposed along its entire length and cut into 15 individual cartilage rings. 5 rings in each case are tied together to give a chain and fixed in the organ bath under a preload of 3 g. After an equilibration time of 45 minutes, a contraction is produced using the agonist. The antagonist (test preparation) is added cumulatively on the plateau of the maximum. Evaluation is carried out in % force change relative to the contraction maximum. The experimental procedure is carried out at 37° C.; the physiological nutrient solution used is a modified Krebs-Henseleit solution through which is bubbled 95% by volume of O2, 5% by volume of CO2.
(§5) Experimental animals: albino guinea pigs (Hattersheim Animal Breeding Institute, Kastengrund, Germany), weight: 200 to 300 g, sex male or female.
(§6) Vehicle: double-distilled water, ethanol or isopropanol; administration: into the organ bath number of administration: cumulative, in SP individual doses
(§7) All numerical values are indicated in the unit μg/ml and relate to the concentration range of the tested compound of the formula I according to the invention (see example numbers in Table 1) which is necessary in order to cause a dilatation which corresponds to the ED50 range.

[3] = tested on: isolated guinea pig trachea, agonist calcium ionophore A23187; test: antagonist of calcium ionophore A23187-induced contraction of isolated guinea pig trachea; assay type: cell-based; settings: Cavia porcellus, 37° C., read-out: Anticontractile action (trachea), Ca ionophore: concentration range for dilatation corresponding to ED50 range
From the text: as §1, §2
b) Calcium ionophore A23187 (Calbiochem, Bad Soden) acts by increased uptake of calcium ions, and an activation of all calcium-dependent signal cascades in the cell. Lipoxygenase inhibitors, in particular, and generally antiinflammatory substances show effects in this model.
as §3, §4, §5, §6, §7

[4] = tested on: isolated guinea pig lung strips, leukotriene D4 (LTD4); test: antagonist of LTD4-induced contraction of isolated guinea pig lung strips; assay type: cell-based; settings: Cavia porcellus, read-out: Anticontractile action (lung), LTD4: concentration range corresponding to the IC50 value
From the text: 4. Activity as an antagonist of the contraction of isolated guinea pig lung strips
The test carried out is based on the same principle as the test indicated in the pharmacological test 3; however, lung strips are used here.
as §3
The guinea pig is sacrificed under laughing gas anaesthesia. The entire pulmonary tract is exposed starting from the trachea. The lobes of the lung are cut in a circular fashion such that 3 mm wide strips are formed. The strips of the upper lobes are divided in order to obtain a total of six approximately equal size strips. The strips are suspended in the organ baths under a preload of 4 g. The nutrient solutions used are modified Krebs Henseleit solutions. When using "Platelet activating factor" (PAF) as an […], the composition of this solution corresponds to that for the agonist SP in "Test 3"; for the agonist LTD4 a Krebs Henseleit solution as in the case of the agonist KCl (Test 3) is used. 95% by volume O2, 5% by volume CO2 is used for bubbling through the bath; the bath temperature is 37° C. The experimental procedure is carried out in a therapeutically cumulative methodology, using the dosage graduations 1, 3, 6 and 10 μg/ml.
The experimental animals, organ bath, vehicles and manner of administration correspond to that stated in pharmacological test 3.
All numerical values are indicated in the unit μg/ml and relate to the concentration range of tested compound of the formula I (see example numbers in Table 1) which is necessary in order to cause a contraction which corresponds to the IC50 value.

SMILES: CCOP(=O)(CCCn1cnc2c1c(=O)[nH]c(=O)n2C)OCC [Example 2, Diethyl [4-(3-methylxanthin-7-yl)propyl]phosphonate]
- Work (performed work, right/left difference) [1]: +5 Δ %
- Muscle weight (right/left difference) (soleus muscle): -22 Δ %
- EC50 [2]: > 10 µg/mL
- EC50 [3]: > 10 µg/mL
- IC50 [4]: 3 to 6 µg/mL (≈ 8.71 to 17.4 µM)
